Results on two compounds are retold here after paper PMC3996151, “Safety and pharmacological characterization of the molecular tweezer CLR01 – a broad-spectrum inhibitor of amyloid proteins’ toxicity” (BMC Pharmacology & Toxicology, 2014).

Data set [1] can be described thus: Solubility in aqueous solutions. Format: physicochemical.
Data set [2] in a line: In vitro dephosphorylation by brain homogenate (inorganic phosphate release). The following applies: positive control substrate, 1.5 mg mouse-brain homogenate. Format: in vitro ADME, mouse. The procedure: Potential dephosphorylation of CLR01 was analyzed by incubating 100 nmol CLR01 with 0.08 units of alkaline phosphatase (ALP; calf intestinal alkaline phosphatase, Promega, Madison, Wisconsin) for 60 min at 60°C. One enzymatic unit is defined as the amount of enzyme required for catalyzing the hydrolysis of 1 μmol of p-nitrophenylphosphate per minute. p-Nitrophenylphosphate disodium salt at 5–50 nmol (Fisher, Waltham, Massachusetts) was used for generation of a standard curve. The amount of inorganic phosphate generated was measured spectrophotometrically using an EnzChek Phosphate Assay kit (Life Technologies, Carlsbad, California) according to the manufacturer’s instructions on a DU-640 spectrophotometer (Beckman Coulter, Brea, California) at λ = 360 nm. Baseline values were subtracted from readings and compared to the standard curve resulting from serial ALP reactions to calculate the amount of inorganic phosphate. Similarly, potential dephosphorylation of CLR01 by brain homogenates was measured. For these experiments, one brain hemisphere was homogenized by sonication in the presence of cOmplete protease-inhibitor cocktail (Roche, Penzberg, Germany). Protein concentration was measured using a BCA Protein Assay Kit (Pierce, Rockford, Illinois). […]

As for `O=P(O)(O)Oc1c2c(c(O)c3c1C1CC3c3cc4c(cc31)C1CC4c3ccccc31)C1CC2c2cc3c(cc21)C1CC3c2ccccc21` [monophosphate metabolite], in data set [1], the “Solubility in aqueous solutions” value is given as “soluble at millimolar concentrations”.
On to `O=[N+]([O-])c1ccc(OP(=O)(O)O)cc1` [p-nitrophenylphosphate, reference compound], for which the “Dephosphorylation by brain homogenate, % of the activity of 0.8 enzymatic units of ALP” value in data set [2] is 99 - 130%.
